Measured values published in patent publication US9303076B2, “Cell-penetrating peptides and uses thereof” (Hoffmann-La Roche Inc., priority 2010, dated 2016).

Key:
[1] = test system: MCF-7 human breast cancer cells; assay: cell viability/apoptosis after 24 h exposure to pro-apoptotic peptides and CPP fusions; assay type: cell-based; conditions: MCF-7 cells; for cell viability / induction of apoptosis: various concentrations; for cell viability / cytotoxicity due to induction of apoptosis: 20 μM
Protocol: (§1) MCF-7 human breast cancer cells were incubated for 24 h in the presence of various concentrations of NRTN (squares), Nur (circles), and NurNRTN (triangles) peptides. The respective amino acid sequences are given in the bottom panel. The experimental approach for assessing cell viability (and thus induction of apoptosis) was the same as in FIG. 3.
as §1, with “4E-BP1 (circles), TAT4E-BP1” for “NRTN”, “(squares),” for “(squares), Nur (circles),”, “NRTN4E-BP1” for “NurNRTN”, “peptides (top panel). […]” for “peptides.”
Luminescence was analyzed in an InfiniteF200 luminescence reader.
Then, the cells were treated with a luminogenic peptide substrate in order to measure dead-cell protease activity, which is released from cells that have lost membrane integrity. […] The luminescence of this assay therefore represents dead cells. The 96 well plates were then analyzed in an InfiniteF200 luminescence reader.
Despite its proven ability to convert BCL-2 into a pro-apoptotic molecule, addition of the latter peptide (i.e. “Nor/Nur”; SEQ ID NO: 72) to cancer cells, even in high concentrations, is not sufficient to induce apoptosis, as the cellular target protein is located in the cytoplasm, but the peptide per se cannot effectively penetrate through the cell membrane to reach the target. In brief, MCF-7 breast cancer cells were incubated in the presence of this peptide for 24 h.
(§2) Subsequently, it was evaluated whether the NurNRTN fusion peptide is capable of penetrating cellular membranes and thereby induces pro-apoptotic activity within cells. MCF-7 human breast cancer cells were used as a model. The experimental approach was as described above (cf. Example 1). […] This effect was dose dependent: cytotoxicity increased with increasing concentrations of peptide.
as §2, with “NRTN4E-BP1” for “NurNRTN”

human Aha1 mRNA = assay: siRNA transfection screening (siAha1 vs siGL3 control, bDNA assay of Aha1/GAPDH mRNA); assay type: cell-based
Protocol: For the quantification of cellular mRNA levels bDNA (branched DNA) assays were performed which enable the detection of individual mRNA levels. To this end, a defined number of the cells to be analyzed was seeded into 96-well plates and allowed to attach over night. On the next day, the cells were transfected with siRNA.
After further 24 hours, the mRNA species were quantified using the QuantiGene Plex 2.0 assay kit according to the manufacturers instructions (Affymetrix Inc., Santa Clara, Calif., USA). In brief, cell lysates were transferred to a capture plate in the presence of a gene-specific probe set and incubated at 53° C. over night. After washing, the wells were sequentially incubated at 53° C. with an amplifier agent and an alkaline phosphatase (AP)-linked label probe with a washing step in between. Subsequently, the luminescent AP substrate dioxitane was added and incubated for 30 min at 53° C. Luminescence was assayed using an InfiniteF200 luminescence reader (Tecan Austria GmbH, Groding, Austria).
In order to analyze the potential CPPs for their ability to transfect siRNA into mammalian cells an increasing peptide concentration (from 1 μM to 20 μM) was employed along with a constant siRNA concentration (100 nM). This range of peptide concentrations was used as it had been shown that positively charged peptides such as TAT are internalized into cells in ranges up to 10 μM and remain in intracellular membrane compartments without significant egress into the cytosol (Duchardt, F. et al. (2007) Traffic 8, 848-866). […] A concentration of 10 nM siRNA is in the saturation range as determined in control experiments using the DharmaFECT transfection reagent (Dharmacon, Inc., Lafayette, Colo., USA; data not shown).
The siRNA oligonucleotides employed were directed against human Aha1 mRNA (Panaretou, B. et al. (2002) Mol. Cell 10, 1307-1318) or against luciferase mRNA as a control.
Complexes of siRNA and the respective peptides were formed in OptiMEM medium and incubated for 15 minutes at room temperature. The cells were incubated in the presence of the complexes for three hours in OptiMEM. After washing, the cells were incubated for further 21 or 45 hours in normal growth medium. Thereafter, the levels of Aha1 mRNA and a reference mRNA (i.e. GAPDH mRNA) were measured by means of a bDNA assay. These assays were performed with cells that were transfected with siAHA1 and with a control siRNA (siGL3, luciferase), respectively.
As a measure for specific RNAi, the reduction of Aha1 mRNA levels relative to GAPDH mRNA levels was compared in siAHA1-transfected cells and siGL3-transfected cells. Specific siRNA mediated transfection causes a reduction in Aha1/GAPDH mRNA values in siAhA1-compared to siGL3-transfected cells. FIG. 3 depicts the screening readout of these assays: the Aha1/GAPDH mRNA values of non-transfected control cells were set to 100% (for each assay), and the Aha1/GAPDH mRNA values of siAha1- or siGL3-transfected cells were expressed relative to that. For this normalized data set, the differences between the respective Aha1/GAPDH mRNA levels of siAha1- and siGL3-transfected cells were determined. Specific peptides caused a significant reduction in siAha1 transfection without reducing siGL3 transfections, which results in positive difference values. The more pronounced these values are, the more specific RNAi is observed (cf. FIG. 3).

MCF7 cells [2] = assay: FACS analysis of internalization of FITC-labeled peptides; assay type: cell-based, human; conditions: FITC-labeled peptide 1, 5, 10 μM; 3 hours at 37° C.; proteinase K treated
Protocol: For FACS analysis, MCF7 cells (ATCC number HTB-22) were detached by 15 min incubation in accutase (an enzyme solution having proteolytic and collagenolytic activities; commercially available from various suppliers). After washing in FACS buffer (PBS containing 5% FCS), the cells were seeded in a 96 well, rounded bottom multi-well plate (Cat. No. 3799, Corning Inc., Corning, N.Y. USA) in a final density of 3×10^5 cells/ml and used immediately. The cells were incubated in the respective presence of 1 μM, 5 μM and 10 μM FITC-labeled peptides in OptiMEM medium for 3 hours at 37° C. Afterwards, the cells were washed in FACS buffer and incubated in proteinase K (0.02 mg/ml) containing buffer for 30 minutes at 37° C. The cells were washed twice and analyzed with the FACSCanto II (BD Biosciences; San Jose, Calif., USA) using the FITC channel.
For determining the internalization behavior of the CPPs identified in the screening procedures FITC-labeled derivates of said peptides (at 1 μM, 5 μM, and 10 μM, respectively) were analyzed by means of FACS. The following peptides were used: NRTN as a transfecting peptide, WNT16 as a non-transfecting peptide, FALL as a toxic peptide and TAT as a reference (positive control) (cf. FIG. 12). MCF7 cells were incubated in the presence of the fluorescent peptide derivatives for 3 hours at 37° C. in OptiMEM. Subsequently, the cells were treated with proteinase K for 30 minutes at 37° C. to remove surface bound peptides, and thus to ensure the monitoring only of internalized peptides. The cells were then washed in PBS and analyzed by FACS.

MCF7 cells [3] = assay: growth inhibition/toxicity (CellTiter-Glo viability, GAPDH mRNA levels); conditions: MCF7 cells; peptide 1 μM to 20 μM
Protocol: MCF7 cells were seeded at a density of 15.000 cells per well in 96 well plates. The cells were incubated for 24 hours at 37° C., 5% CO2 and 85% humidity in RPMI 1640 medium supplemented with 10% FCS (fetal calf serum) and L-glutamine. For functional assays, the cells were washed in OptiMEM medium and RPMI 1640 was replaced with OptiMEM (all reagents were purchased from Invitrogen Corporation, Carlsbad, Calif., USA). Complexes of siRNAs and peptides were formed by incubation of 100 nM siRNA with the indicated peptide concentrations in OptiMEM for 30 minutes at room temperature. The complexes were added to the cells and incubated for 3 hours. Subsequently, OptiMEM was replaced with normal RPMI 1640 growth medium. The cells were incubated for further 21 hours for generating bDNA lysates, and for further 45 hours for performing CellTiter-Glo or CytoTox-Glo assays (cf. below).
In order to measure the number of living cells the CellTiter-Glo Luminescent Cell Viability Assay (Promega Corporation, Madison, Wis., USA) was used according to the protocol of the manufacturer. The cells were incubated for 48 hours in the presence of peptides and siRNAs. Subsequently, the cells are lysed, and a luminescent signal proportional to the amount of ATP present is generated which, in turn, is proportional to the number of living cells present. Luminescence was analyzed in an InfiniteF200 luminescence reader.
Based on this observation, GAPDH mRNA levels were used as a general readout for toxicity: an average measurement of 100% GAPDH mRNA relative to the medium control was considered as non-toxic, values between 99% and 70% as moderate toxic, and values of less than 70% as toxic (cf. FIG. 3).
Similarly, peptides resulting in GAPDH mRNA values >70% were classified as “nontoxic”, whereas peptides that caused a reduction of GAPDH mRNA to lesser values were termed “toxic”.

siRNA duplex = assay: gel-shift assay of peptide/siRNA complex formation; assay type: binding; conditions: ethidium bromide staining
Protocol: Gel-shift assays were performed by mixing […] siRNA duplex with the respective peptides in a given molar ratio in water. The complexes were formed for 1 hour at 37° C. and analyzed on a 2.5% agarose gel with ethidium bromide (run: 40 minutes at 125 V). For proteinase K treatment, 1 μl proteinase K was added to a standard reaction as indicated above.
Mechanisms that may explain transfection functionalities of charged peptides such as TAT or protamine include the formation of complexes between positively charged peptides and negatively charged nucleic acids. Such complexes enable peptide-mediated membrane-interacting and/or endosome escape functionalities to transfer the complexed nucleic acids into the cytosol of cells (Law, M. et al. (2008) Biotechnol. Prog. 24, 957-963) In order to address whether the above mechanism may apply to the NTRN-derived peptide as well gel-shift assays were performed (cf. FIG. 8). To this end, siRNA was co-incubated with increasing concentrations of peptide, followed by analyses of their migration pattern via gel electrophoresis.

For “GAAEAAARVYDLGLRRLRQRRRLRRERVRAGTRIIYDRKFLMECRNSPVT [NRTN4E-BP1]”, the “potency compared to TAT-fused counterpart” value [1] was “significantly higher potency” and the “cell viability / induction of apoptosis” value [1] was “remarked cytotoxicity”.
For “GTRIIYDRKFLMECRNSPVT [4E-BP1, reference compound]”, the “cell viability / induction of apoptosis” value [1] was “No reduction in cell viability or induction of apoptosis was observed”.
With “FALLGDFFRKSKEKIGKEFKRIVQRIKDFLRNLVPRTES (FALL39 Var.1 peptide sequence; listed as Homo sapiens)” the “specific reduction of Aha1 mRNA at lower concentrations” value (human Aha1 mRNA; 5 μM peptide) was “clear and specific reduction of Aha1 mRNA”, the “specific Aha1 mRNA reduction (relative to GAPDH mRNA) where toxicity is pronounced” value (human Aha1 mRNA; 10 μM or higher) was “only inconclusive evidence for a specific Aha1 mRNA reduction” and the “transfection efficacy compared with TAT / control peptides” value (human Aha1 mRNA; NRTN: at lower non-toxic concentrations) was “inferior transfection efficacy than TAT”. For the same molecule, the “internalization into cells (FACS, FITC channel)” value (MCF7 cells [2]) was “strong accumulation” and the “cell viability / growth inhibition / toxicity (CellTiter-Glo, GAPDH mRNA levels)” value (MCF7 cells [3]) was “significant toxicity”.
With “GRKKRRQRRRPPQ (Human immunodeficiency virus 1; TAT peptide sequence) [reference compound]” the “complex formation with siRNA” value (siRNA duplex) was “forms complexes with the siRNA molecules” and the “difference of Aha1/GAPDH for luciferase siRNA and Aha1/GAPDH for Aha1 siRNA (Transfection)” value (human Aha1 mRNA; 20 μM, threshold value of FIG. 3) was 18%.
With `CC[C@H](C)[C@H](NC(=O)[C@H](CCCNC(=N)N)NC(=O)[C@@H](NC(=O)CNC(=O)[C@H](CCCNC(=N)N)NC(=O)[C@H](CCCNC(=N)N)NC(=O)[C@H](CCCNC(=N)N)NC(=O)[C@H](CCC(N)=O)NC(=O)[C@H](CCCNC(=N)N)NC(=O)[C@H](CCCNC(=N)N)NC(=O)[C@H](CCCCN)NC(=O)[C@H](CCCCN)NC(=O)[C@H](CCCNC(=N)N)NC(=O)CNC(=O)[C@H](Cc1ccc(O)cc1)NC(=O)CCOCCOCCOCCNC(=O)[C@@H](N)CS)[C@@H](C)O)C(=O)N[C@H](C(=O)N[C@@H](Cc1ccc(O)cc1)C(=O)N[C@@H](CC(=O)O)C(=O)N[C@@H](CCCNC(=N)N)C(=O)N[C@@H](CCCCN)C(=O)N[C@@H](Cc1ccccc1)C(=O)N[C@@H](CC(C)C)C(=O)N[C@@H](CCSC)C(=O)N[C@@H](CCC(=O)O)C(=O)N[C@@H](CS)C(=O)N[C@@H](CCCNC(=N)N)C(=O)N[C@@H](CC(N)=O)C(=O)N[C@@H](CO)C(=O)N1CCC[C@H]1C(=O)N[C@H](C(=O)N[C@H](C(=O)O)[C@@H](C)O)C(C)C)[C@@H](C)CC` [TAT4E-BP1, reference compound] the “cell viability / cytotoxicity due to induction of apoptosis” value [1] was “clear evidence for reduction in cell viability and cytotoxicity”.
In the case of `CC[C@H](C)[C@H](NC(=O)[C@H](CCCNC(=N)N)NC(=O)[C@@H](NC(=O)CNC(=O)[C@H](CCCNC(=N)N)NC(=O)[C@H](CCCNC(=N)N)NC(=O)[C@H](CCCNC(=N)N)NC(=O)[C@H](CCC(N)=O)NC(=O)[C@H](CCCNC(=N)N)NC(=O)[C@H](CCCNC(=N)N)NC(=O)[C@H](CCCCN)NC(=O)[C@H](CCCCN)NC(=O)[C@H](CCCNC(=N)N)NC(=O)CNC(=O)[C@H](Cc1ccc(O)cc1)NC(=O)CCOCCOCCOCCNC(=O)[C@@H](N)CS)[C@@H](C)O)C(=O)N[C@H](C(=O)NCC(=O)N[C@@H](CC(=O)O)C(=O)NCC(=O)N[C@@H](CCCCN)C(=O)N[C@@H](Cc1ccccc1)C(=O)NCC(=O)N[C@@H](CCSC)C(=O)N[C@@H](CCC(=O)O)C(=O)N[C@@H](CS)C(=O)N[C@@H](CCCNC(=N)N)C(=O)N[C@@H](CC(N)=O)C(=O)N[C@@H](CO)C(=O)N1CCC[C@H]1C(=O)N[C@H](C(=O)N[C@H](C(=O)O)[C@@H](C)O)C(C)C)[C@@H](C)CC` [TATinact4E-BP1, reference compound], the “cell viability / cytotoxicity due to induction of apoptosis” value [1] is reported as “completely inactive”.
“PROK2: candidate peptide displaying the highest similarity with TAT (LTRKNNFGNGRQERRKRKRSKRKKEVPFFG; PROK2 peptide sequence; listed as Homo sapiens)” was tested, and the “siRNA transfection activity (specific Aha1 mRNA reduction relative to GAPDH mRNA)” value (human Aha1 mRNA; MCF7 cells, 100 nM siRNA, peptide 1 μM to 20 μM) was “did not show detectable transfection activity”.
In the case of “FSRSLHSLLVDL (C-terminal Nor1 peptide sequence; listed as Homo sapiens) [Nor/Nur, reference compound]”, the “cell viability / induction of apoptosis” value [1] is reported as “No reduction in cell viability or induction of apoptosis was observed”.
For “GAAEAAARVYDLGLRRLRQRRRLRRERVRAGTRIIGDGKFGMECRNSPVT (inactive NRTN4E-BP1 peptide sequence) [NRTNinact4E-BP1]”, the “cell viability / induction of apoptosis” value [1] was “inactive”.
